How the values were obtained:
[1] = tested on: SOD1-G93A mice; test: Clinical outcomes (disease onset, life span, motor score) in SOD1-G93A mice grafted with human NSCs; conditions: SOD1-G93A mice grafted with live NSCs, by immunosuppressive regimen
Description: Thus, five experimental groups were given different immunosuppressive treatments: the first group was treated with FK506 monotherapy (Prograf, Fujisawa Healthcare, Inc., Deerfield, Ill.) (2 μg/g/day, n=23); a second group was treated with a double immunosuppressive regimen combining FK506 and rapamycin (Calbiochem, La Jolla, Calif.) (1 μg/g/day each, n=21); a third group received triple immunosuppression with FK506, rapamycin, and MMF (CellCept, Roche, Nutley, N.J.) (1 μg/g/day each for FK506 and rapamycin, 100 μg/g/day for MMF, n=14); a fourth group was treated with CD4 antibodies (clone GK1.5, 20 μg/g/day, n=12); and a fifth group (n=10) was treated with FK506 plus rapamycin exactly as the second group, except that subjects were grafted with dead cells. Dead-cell grafts utilized cells that were exposed to repeated freezing-thawing and served to control for the potential therapeutic effects of immunosuppressants themselves on motor neuron disease. […]
Clinical outcomes were studied on the same set of data originating from five concurrent treatment groups allowed to survive to terminal illness. […] Variance in disease onset and life span was analyzed with one-way ANOVA, followed by a Fisher LSD post hoc test. Variance in motor score curves was analyzed by repeated-measures ANOVA, followed by Fisher LSD testing. […]

[2] = tested on: SOD1-G93A mice grafted with human NSCs; test: Graft rejection and human NSC graft survival under immunosuppressive regimens in SOD1-G93A mice (ICC for HNu, CD4, CD8, DX5, Iba-1); conditions: compared to the double immunosuppressive regimen
Description: Thus, five experimental groups were given different immunosuppressive treatments: the first group was treated with FK506 monotherapy (Prograf, Fujisawa Healthcare, Inc., Deerfield, Ill.) (2 μg/g/day, n=23); a second group was treated with a double immunosuppressive regimen combining FK506 and rapamycin (Calbiochem, La Jolla, Calif.) (1 μg/g/day each, n=21); a third group received triple immunosuppression with FK506, rapamycin, and MMF (CellCept, Roche, Nutley, N.J.) (1 μg/g/day each for FK506 and rapamycin, 100 μg/g/day for MMF, n=14); a fourth group was treated with CD4 antibodies (clone GK1.5, 20 μg/g/day, n=12); and a fifth group (n=10) was treated with FK506 plus rapamycin exactly as the second group, except that subjects were grafted with dead cells. Dead-cell grafts utilized cells that were exposed to repeated freezing-thawing and served to control for the potential therapeutic effects of immunosuppressants themselves on motor neuron disease. […] Males and females were randomly admixed in the various experimental groups to minimize a systemic effect of gender on disease progression and treatment response. […]

SMILES: C=CC[C@@H]1/C=C(\C)C[C@H](C)C[C@H](OC)[C@H]2O[C@@](O)(C(=O)C(=O)N3CCCC[C@H]3C(=O)O[C@H](/C(C)=C/[C@@H]3CC[C@@H](O)[C@H](OC)C3)[C@H](C)[C@@H](O)CC1=O)[C@H](C)C[C@@H]2OC [FK506]
- average disease onset [1]: 13.2±1.8 weeks
- life span [1]: 17.6±2.0 weeks

SMILES: COc1c(C)c2c(c(O)c1C/C=C(\C)CCC(=O)OCCN1CCOCC1)C(=O)OC2 [MMF, mycophenolate mofetil]
- effect of adding MMF to FK506 plus rapamycin on graft survival and infiltration by CD4/CD8 (+) cells or microglia/macrophages [2]: no apparent effects

Reference: patent US20150086511A1, “SURVIVAL, DIFFERENTIATION AND STRUCTURAL INTEGRATION OF HUMAN NEURAL STEM CELLS GRAFTED INTO THE ADULT RAT SPINAL CORD” (NEURALSTEM, INC., priority 2005, published 2015)
